Assay results reported in publication PMC5290484, “Structure and lipid-binding properties of the kindlin-3 pleckstrin homology domain” (Biochemical Journal, 2017).
Read-outs that look alike come from different tables or passages of the source.

Assays:
Grp1 PH domain [1] = target: T1, Grp1 PH domain (Homo sapiens, UniProt O43739); design: method as in PMID 26977543; settings: same method; ref [34]; cited from earlier work
T1 construct: UniProtKB: O43739) PH domain (residues 264–392) were cloned into a pOPINJ vector; His6-GST (tandem), followed by HRV-3C site (N, cleaved yes); made in house; host or cells: E. coli (same protocol as kindlin-3 PH, B834)
T1 sequence (O43739 264-392): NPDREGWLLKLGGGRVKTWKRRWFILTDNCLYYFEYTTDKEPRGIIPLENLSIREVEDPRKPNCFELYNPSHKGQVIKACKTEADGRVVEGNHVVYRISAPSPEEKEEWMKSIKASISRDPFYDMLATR

kindlin-3 PH domain [2] = target: T2, kindlin-3 PH domain (Mus musculus, UniProt Q8K1B8); assay: SPR, immobilised biotinylated kindlin-3 PH domain as ligand, lipid nanodiscs as analyte; format: binding
T2 construct: kindlin-3 PH domain (residues 344–479); His6-GST (tandem), followed by HRV-3C site (N, cleaved yes); made in house; host or cells: BirA+ Escherichia coli strain
T2 sequence (Q8K1B8 344-479): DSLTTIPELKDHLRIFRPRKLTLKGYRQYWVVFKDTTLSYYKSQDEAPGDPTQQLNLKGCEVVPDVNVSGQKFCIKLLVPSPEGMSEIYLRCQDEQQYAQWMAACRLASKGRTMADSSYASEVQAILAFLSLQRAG
Experimental: (§1) The observation in MD simulation that multiple phosphoinositol molecules may bind to more than one site on a single PH domain (Figures 2 and 3) led us to attempt further verification of this mode of interaction experimentally. […] To study the effect of phosphatidylinositol lipid concentrations on their binding by PH domains, we performed the SPR experiments in an inverted set-up. The biotinylated PH domain was immobilised onto the sensor chip and the nanodiscs were prepared as the analyte.
POPC and POPE (1-palmitoyl-2-oleoyl-sn-glycero-3-phosphoethanolamine) were purchased from Avanti Polar Lipids, and PtdIns(4,5)P2 (P-4516), PtdIns(3,4,5)P3 (P-3924), and Ins(1,3,4,5)P4 (Q-1345) were purchased from Echelon Biosciences. Nanodiscs were prepared following standard protocols. Briefly, to prepare nandiscs containing 5% (mol/mol) PtdIns(3,4,5)P3, a mixture of 200 µl of 10 mg/ml POPC, 200 µl of 10 mg/ml POPE together with 670 µl of 0.5 mg/ml PtdIns(3,4,5)P3 in chloroform were dried on a clean Pyrex tube under argon. Chloroform residue was then removed by desiccation in a desiccator attached on a VARIO-SP diaphragm pump (Vacuubrand). The lipid film was subsequently hydrated by adding 1 ml of solubilisation buffer [20 mM HEPES (pH 7.5), 150 mM NaCl, and 17 mM Na-cholate] followed by vigorous votexing. […]

kindlin-3 PH domain [3] = target: T2, kindlin-3 PH domain; assay: SPR, immobilised biotinylated lipid headgroup as ligand, kindlin-3 PH domain WT as analyte; format: binding
Text: To verify the potential interaction between clustered phosphatidylinositol phosphates and the kindlin-3 PH domain observed in our MD simulations, we conducted surface plasmon resonance (SPR) experiments. Firstly, a biotinylated inositol phosphate was immobilised onto a streptavidin-derivatised sensor chip, as in previous studies. The use of streptavidin-mediated immobilisation meant that the distance separating individual lipids would be larger than the size of the tetrameric streptavidin, and therefore than the PH domain itself, meaning that one PH domain would be able to bind no more than one lipid headgroup simultaneously, imposing one-to-one binding in the interaction (Figure 4A). […] We note that, in the MD simulation with the mutated form of the kindlin-3 PH domain, the protein is capable of binding to the bilayer in a similar orientation to the wild type (WT); however, in many simulations, it quickly dissociates from the bilayer (Supplementary Figure S8). A naturally occurred IPRR (isoleucine–proline–arginine–arginine) insertion in the β1–β2 loop of kindlin-3 has been reported to disable integrin activation and thus lymphocyte adhesion and migration.
(§2) SPR experiments were performed using a Biacore T200 machine (GE Healthcare Life Sciences) at 20°C in 10 mM HEPES (pH 7.5) and 150 mM NaCl. PtdIns(4,5)P2 (C-45B6a) and PtdIns(3,4,5)P3 (C-39B6a) were purchased from Echelon Biosciences. The BIAcore CM5 chip (GE Healthcare Life Sciences) was firstly covered with streptavidin following the manufacturer's instructions before the biotinylated PIPs or biotinylated proteins were immobilised. The analyte with twofold serial dilutions was applied at a flow rate of 20 µl/min for 180 s followed by 600 s of dissociation time. The biosensor chip was regenerated after each sample injection cycle with a different buffer in the two experimental set-ups: in the case of immobilised PIPs on the sensor chip, 0.1% SDS was used; when the PH domain was immobilised, then the surface was regenerated by 2 M MgCl2. The data were fit with a 1:1 Langmuir adsorption model (B = BmaxC/(KD + C), where B is the response of bound analyte and C is the concentration of the analyte in the sample to calculate the dissociation constant (KD) using the BIAanalysis software. The molecular mass of the nanodiscs for SPR analysis was estimated to be 120 kDa.

[4] = test system: T3, kindlin-3 PH domain, two lysines within the β1–β2 loop mutated; assay: SPR, immobilised kindlin-3 PH domain with two β1–β2 loop lysines mutated, lipid nanodiscs as analyte; format: binding, mouse; settings: site-directed mutagenesis of two lysines within the β1–β2 loop
T3 construct: kindlin-3 PH domain (residues 344–479); His6-GST (tandem), followed by HRV-3C site (N, cleaved yes); made in house; host or cells: BirA+ Escherichia coli strain
Experimental: as §1
as §2, with “The data were fit with a 1:1 Langmuir adsorption model (B = BmaxC/(KD + C), where B is the response of bound analyte and C is the concentration of the analyte in the sample to calculate the dissociation constant (KD) using the BIAanalysis software. The molecular mass of the nanodiscs for SPR analysis was estimated to be 120 kDa.” left out

Grp1 PH domain [5] = target: T1, Grp1 PH domain; assay: SPR, immobilised lipid headgroup as ligand, Grp1 PH domain as analyte; format: binding
Text: We further asked whether our observations are specific to the kindlin-3 PH domain (and similar domains) or could also be shown for PH domains which are already known to bind to inositol phosphate species in a classical, 1:1 interaction mode. If they could be shown for such well-characterised domains, then our results with the kindlin-3 PH domain would seem questionable. […] So, in the case of Grp1, there is only a five times difference in affinity between immobilised lipid headgroups and whole lipids in a lipid nanodisc (rather than the ∼100× enhancement observed with the kindlin-3 PH domain).
SPR experiments were performed using a Biacore T200 machine (GE Healthcare Life Sciences) at 20°C in 10 mM HEPES (pH 7.5) and 150 mM NaCl. PtdIns(4,5)P2 (C-45B6a) and PtdIns(3,4,5)P3 (C-39B6a) were purchased from Echelon Biosciences. The BIAcore CM5 chip (GE Healthcare Life Sciences) was firstly covered with streptavidin following the manufacturer's instructions before the biotinylated PIPs or biotinylated proteins were immobilised. The analyte with twofold serial dilutions was applied at a flow rate of 20 µl/min for 180 s followed by 600 s of dissociation time. […]

[6] = immobilised headgroup on streptavidin chip, WT PH domain as analyte, 20°C, 10 mM HEPES pH 7.5, 150 mM NaCl, 1:1 Langmuir fit, read-out: dissociation constant (KD)

| nanodisc binding to the PH domain (in words) (kindlin-3 PH domain [2]; inositol phosphate lipid 5% of total lipids in nanodisc) | Kd (kindlin-3 PH domain [3]; [6]) [µM] | Kd (kindlin-3 PH domain [3]; immobilised headgroup, PH domain as analyte, as given in the abstract, read-out: affinity (KD)) [µM] | nanodisc binding to the PH domain (in words) (kindlin-3 PH domain [2]; PtdIns(3,4,5)P3 composition reduced to 1% of nanodisc lipids) | Kd (kindlin-3 PH domain [3]; immobilised headgroup on streptavidin chip, WT PH domain as analyte, 20°C, 10 mM HEPES pH 7.5, 150 mM NaCl, 1:1 Langmuir fit, listed as PIP3, read-out: dissociation constant (KD)) [µM] | Bmax (Grp1 PH domain [5]; immobilised PtdIns(3,4,5)P3 headgroup) [RU] | Kd (Grp1 PH domain [5]; immobilised headgroup) [µM] | Substance | PMF well depth (Grp1 PH domain [1]) [kcal/mol] | nanodisc binding to the PH domain (in words) [4] |
| --- | --- | --- | --- | --- | --- | --- | --- | --- | --- |
| no affinity | 1100 | 1000 |  |  |  |  | PtdIns(4,5)P2 | -3.8 |  |
|  | 300 |  | abolishes nanodisc binding | ~300 | 7150 | 2.8 ± 0.4 | PtdIns(3,4,5)P3 | -5.3 | abolishes nanodisc binding |
